Source: ChEMBL document CHEMBL1134332, “Design of remarkably simple, yet potent urea-based inhibitors of glutamate carboxypeptidase II (NAALADase)” (J Med Chem, 2001)
Activity calls are given as the source filed them. No cut-off for these calls is given here. Peptide text beside a SMILES is read from it.

What was measured:
[1] = target: T1, Glutamate carboxypeptidase 2 (Rattus norvegicus, UniProt P70627); assay: Inhibitory activity against expressed rat Glutamate carboxypeptidase II, using a substrate concentration of 5 uM
[2] = target: Glutamate carboxypeptidase 2 (Rattus norvegicus) (UniProt P70627); assay: Percentage inhibition at 1 uM against rat Glutamate carboxypeptidase II using a substrate concentration of 5 uM
[3] = target: Glutamate carboxypeptidase 2 (Rattus norvegicus) (UniProt P70627); assay: Percentage inhibition at 1 uM against rat Glutamate carboxypeptidase II, using a substrate concentration of 5 uM
[4] = target: Glutamate carboxypeptidase 2 (Rattus norvegicus) (UniProt P70627); assay: Percentage inhibition at 1 uM; IA means inactive
[5] = target: T1, Glutamate carboxypeptidase 2; assay: Inhibitory activity against expressed rat Glutamate carboxypeptidase IIusing a substrate concentration of 5 uM
[6] = target: Glutamate carboxypeptidase 2 (Rattus norvegicus) (UniProt P70627); assay: Percentage inhibition at 100 uM

Glutamate carboxypeptidase 2 (Rattus norvegicus), sequence (P70627 whole entry, looked up): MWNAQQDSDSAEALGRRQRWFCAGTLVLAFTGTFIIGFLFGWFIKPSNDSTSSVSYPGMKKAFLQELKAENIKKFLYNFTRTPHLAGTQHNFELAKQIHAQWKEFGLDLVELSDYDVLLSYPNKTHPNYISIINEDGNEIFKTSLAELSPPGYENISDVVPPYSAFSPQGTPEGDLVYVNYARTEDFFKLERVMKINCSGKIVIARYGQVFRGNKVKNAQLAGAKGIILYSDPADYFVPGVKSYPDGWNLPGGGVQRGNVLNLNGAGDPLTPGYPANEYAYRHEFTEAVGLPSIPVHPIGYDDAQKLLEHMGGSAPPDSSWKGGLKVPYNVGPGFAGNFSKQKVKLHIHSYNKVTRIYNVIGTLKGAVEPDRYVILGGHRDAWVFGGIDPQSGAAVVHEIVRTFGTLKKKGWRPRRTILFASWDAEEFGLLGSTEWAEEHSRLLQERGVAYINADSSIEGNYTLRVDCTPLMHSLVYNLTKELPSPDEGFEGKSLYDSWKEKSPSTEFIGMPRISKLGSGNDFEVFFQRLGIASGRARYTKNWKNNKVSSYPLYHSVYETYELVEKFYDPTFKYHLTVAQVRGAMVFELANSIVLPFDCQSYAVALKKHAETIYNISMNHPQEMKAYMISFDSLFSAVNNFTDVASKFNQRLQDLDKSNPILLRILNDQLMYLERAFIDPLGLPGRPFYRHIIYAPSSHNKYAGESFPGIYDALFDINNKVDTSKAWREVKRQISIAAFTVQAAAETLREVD
T1 sequence (P70627 whole entry): as the sequence (P70627 whole entry, looked up) above

N[C@@H](CCC(=O)O)C(=O)N[C@@H](CCC(=O)O)C(=O)O (H-Glu-Glu-OH)
IC50 [1]: 750 nM

CC(C)(C)NC(=O)N[C@@H](CCC(=O)O)C(=O)O
inhibition [2]: 10%

O=C(O)CC[C@H](NC(=O)C(=O)N[C@@H](CCC(=O)O)C(=O)O)C(=O)O
inhibition [3]: 9%

O=C(N[C@@H](CS)C(=O)O)N[C@@H](CS)C(=O)O
IA [4]: inactive

N[C@@H](CC(=O)O)C(=O)N[C@@H](CCC(=O)O)C(=O)O (H-Asp-Glu-OH)
IC50 [5]: 2400 nM

O=C(O)CC[C@H](CP(=O)(O)C[C@@H](CCC(=O)O)C(=O)O)C(=O)O
IC50 [1]: 21.7 nM

CC(C)(C)SCC(NC(=O)N[C@@H](CCC(=O)O)C(=O)O)C(=O)O (stereo partly specified)
IC50 [1]: 29 nM

O=C(O)CC[C@H](NC(=O)NCC(=O)O)C(=O)O
inhibition [2]: 46%

N[C@@H](CC(=O)O)C(=O)N[C@@H](CC(=O)O)C(=O)O (H-Asp-Asp-OH)
inhibition [6]: 42%

O=C(O)CC[C@H](NC(=O)N[C@@H](CS)C(=O)O)C(=O)O
IC50 [1]: 6.9 nM

O=C(O)CCC(CP(=O)(O)O)C(=O)O (stereo unspecified)
IC50 [1]: 5.1 nM
